In patent US20150148256A1, “BIOLUMINESCENCE IMAGING-BASED SCREENING ASSAY AND INHIBITORS OF ABCG2” (THE JOHNS HOPKINS UNIVERSITY, priority 2008, published 2015):
Structures can show the parent of a compound that is named as a salt. Where two headings read alike, the source gives them in different places.

Molecular target: T1, ABCG2 (Homo sapiens, UniProt Q9UNQ0)
T1 sequence (Q9UNQ0 1-655): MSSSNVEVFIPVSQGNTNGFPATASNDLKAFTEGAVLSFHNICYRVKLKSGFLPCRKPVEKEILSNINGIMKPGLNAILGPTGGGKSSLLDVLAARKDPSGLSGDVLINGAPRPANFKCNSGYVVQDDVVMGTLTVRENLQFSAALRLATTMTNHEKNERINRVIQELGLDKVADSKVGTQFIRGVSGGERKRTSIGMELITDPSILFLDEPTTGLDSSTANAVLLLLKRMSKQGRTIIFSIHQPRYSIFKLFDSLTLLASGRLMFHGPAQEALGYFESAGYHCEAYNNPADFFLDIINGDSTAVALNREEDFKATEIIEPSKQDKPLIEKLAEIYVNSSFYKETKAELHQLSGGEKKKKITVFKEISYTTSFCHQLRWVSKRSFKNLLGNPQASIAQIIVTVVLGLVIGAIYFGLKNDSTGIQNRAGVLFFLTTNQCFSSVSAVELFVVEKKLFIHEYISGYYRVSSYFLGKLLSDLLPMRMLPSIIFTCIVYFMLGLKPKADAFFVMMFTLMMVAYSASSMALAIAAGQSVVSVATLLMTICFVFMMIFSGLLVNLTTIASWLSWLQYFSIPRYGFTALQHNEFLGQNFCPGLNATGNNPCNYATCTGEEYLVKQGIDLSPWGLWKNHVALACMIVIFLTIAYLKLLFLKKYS
Assay: Bioluminescence imaging (BLI) assay in HEK293/ABCG2/fLuc cells
Experimental: HEK293/ABCG2/fLuc cells were plated into 96-well plates at a density of 4×10^4 cells/100 μL per well and were allowed to attach overnight. The following day, 10 μL of each compound or the control solvent was transferred from a compound library in a 96-well, high-throughput format into the wells using a multichannel pipette. […] Images were taken every 5 minutes for ˜1 h. Light output from each well was quantified at the 40 min time point after initiation of imaging, and the signal-to-background (S/B) ratio of the light output from each compound divided by that from the control well was calculated. This S/B ratio serves as an indicator of the potency of ABCG2 inhibition, the mechanism by which BLI signal is enhanced.
Images were taken every 5 min for ˜1 h, and light output from each well at the 40 min time point was chosen for quantification. The SB ratio of the light output from each compound divided by that from the control well was calculated. This ratio was used as an indicator of the potency of ABCG2 inhibition, the mechanism by which BLI signal is enhanced.
The BLI signal-enhancing effect of selected ABCG2 inhibitors was evaluated within the range of 0.001 μM-100 μM, with HEK293/ABCG2/fLuc cells and 50 μg/mL D-luciferin. The data obtained at 40 min after imaging commencement were chosen arbitrarily to be plotted (FIG. 3).

[1] = Table 2, HEK293/ABCG2/fLuc cells, compound approximately 17 μM, ~50 μg/mL D-luciferin, 40 min time point

Molecule | Fold (BLI enhancement, S/B ratio over control) (human, 40 min, 17 μM) | other results
COc1ccc(-c2cc(=O)c3c(O)c(OC)c(OC)cc3o2)cc1O [eupatorin] | 5.6 fold | Fold (BLI enhancement), previously unknown compounds (human, 40 min, 17 μM): 5.6 fold
C[C@]12CC[C@@H]3c4ccc(O)cc4CC[C@H]3[C@@H]1CCC2=O [estrone] | – | fold (BLI enhancement), additional previously known ABCG2 inhibitors (human, 40 min, 17 μM): 4.1 fold
Nc1c2ccccc2nc2ccccc12 [aminacrine] | 2.9 fold | –
COc1cc(O)c2c(c1)C(=O)c1cc(C)cc(O)c1C2=O [physcion] | 2.1 fold | –
C[C@]12Cc3c[nH]nc3C[C@@H]1CC[C@@H]1[C@@H]2CC[C@@]2(C)[C@H]1CC[C@]2(C)O [stanozolol] | – | Fold (BLI enhancement, S/B ratio over control) (human): 2.8 fold
CCOc1ccc(Cc2nccc3cc(OCC)c(OCC)cc23)cc1OCC [ethaverine hydrochloride] | 2.6 fold | –
O=C1C[C@@H](c2ccc(O)cc2)Oc2cc(O)cc(O)c21 [naringenin] | – | BLI signal enhancement (human, 40 min, 17 μM): 1.9 fold; fold (BLI enhancement), additional previously known ABCG2 inhibitors (human, 40 min, 17 μM): 1.9 fold
CCC(C)(C)C(=O)O[C@H]1C[C@@H](C)C=C2C=C[C@H](C)[C@H](CC[C@@H]3C[C@@H](O)CC(=O)O3)[C@H]21 [simvastatin] | 2.7 fold | –
O=c1cc(-c2ccccc2)oc2cc(O)c(O)cc12 [6,7-dihydroxyflavone] | 2.7 fold | fold (BLI enhancement), additional previously known ABCG2 inhibitors (human, 40 min, 17 μM): 2.7 fold
CC(C)OC(=O)C(C)(C)Oc1ccc(C(=O)c2ccc(Cl)cc2)cc1 [fenofibrate] | 2.3 fold | –
COc1cc(/C=C/C(=O)CC(=O)/C=C/c2ccc(O)c(OC)c2)ccc1O [curcumin] | 6.3 fold | Fold (BLI enhancement), known compounds (human, 40 min, 17 μM): 6.3 fold
O=C(O)c1cc(O)c2c(c1)C(=O)c1cccc(O)c1C2=O [rhein] | 3.1 fold | –
CCCc1nc(C)c2c(=O)[nH]c(-c3cc(S(=O)(=O)N4CCN(CC)CC4)ccc3OCC)nn12 [vardenafil] | 3.3 fold | –
CCCc1nn(C)c2c(=O)[nH]c(-c3cc(S(=O)(=O)N4CCN(C)CC4)ccc3OCC)nc12 [sildenafil] | 6.6 fold | Fold (BLI enhancement), previously unknown compounds (human, 40 min, 17 μM): 6.6 fold
COc1ccc([C@@H]2CC(=O)c3c(O)cc(O)cc3O2)cc1O [hesperetin] | 5.0 fold | Fold (BLI enhancement), known compounds (human, 40 min, 17 μM): 5.0 fold
O=C1C(O)=C([C@H]2CC[C@H](c3ccc(Cl)cc3)CC2)C(=O)c2ccccc21 [atovaquone] | 3.5 fold | –
Cc1cc(C(C)(C)CC(C)(C)C)ccc1OCCOCC[N+](C)(C)Cc1ccccc1.[Cl-] [methylbenzethonium chloride] | – | Fold (BLI enhancement, S/B ratio over control): 2.1 fold
C=C1CC[C@H](O)C/C1=C/C=C1\CCC[C@]2(C)[C@@H]([C@H](C)CCCC(C)(C)O)CC[C@@H]12 [calcifediol] | 3.2 fold | –
COC(=O)C1=C(C)NC(C)=C(C(=O)OCC(C)C)C1c1ccccc1[N+](=O)[O-] (stereo not shown) [nisoldipine] | 3.2 fold | –
CCC(=O)O[C@H]1CC[C@H]2[C@@H]3CCc4cc(O)ccc4[C@H]3CC[C@]12C [estradiol propionate] | 2.6 fold | –
O=c1cc(-c2ccccc2)oc2cc(O)cc(O)c12 [chrysin] | 2.3 fold | fold (BLI enhancement), additional previously known ABCG2 inhibitors (human, 40 min, 17 μM): 2.3 fold
CCC(=O)OCC(=O)[C@@]1(OC(=O)CC)[C@@H](C)C[C@H]2[C@@H]3CCC4=CC(=O)C=C[C@]4(C)[C@@]3(Cl)[C@@H](O)C[C@@]21C [beclomethasone dipropionate] | 3.2 fold | –
CN(C)CCOc1ccc(/C(=C(/CCCl)c2ccccc2)c2ccccc2)cc1 [toremifene] | 2.3 fold | –
CSc1ccc2c(c1)N(CCC1CCCCN1C)c1ccccc1S2 (stereo not shown) [th oridaz ne] | – | Fold (BLI enhancement, S/B ratio over control) [1]: 2.5 fold

Molecule | Fold (BLI enhancement, S/B ratio over control) (human, 40 min, 17 μM) | other results
C=C1C[C@@H]2[C@H](CC[C@]3(C)C(=O)CC[C@@H]23)[C@@]2(C)C=CC(=O)C=C12 [exemestane] | 2.1 fold | –
COc1ccc(CCN(C)CCCC(C#N)(c2cc(OC)c(OC)c(OC)c2)C(C)C)cc1OC (stereo not shown) [gallopamil] | – | Fold (BLI enhancement, S/B ratio over control) [1]: 2.4 fold
COc1ccc(-c2cc(=O)c3c(O)cc(O)cc3o2)cc1 [acacetin] | – | BLI signal enhancement (BLI screen, approximately 17 μM, 40 min): 1.8 fold; fold (BLI enhancement), additional previously known ABCG2 inhibitors (Table 5, approximately 17 μM, 40 min time point): 1.8 fold
Brc1c(NC2=NCCN2)ccc2nccnc12 [brimonidine] | 3.4 fold | –
CCc1nn(CCCN2CCN(c3cccc(Cl)c3)CC2)c(=O)n1CCOc1ccccc1 [nefazodone hydrochloride] | 2.6 fold | –
OCCN(CCO)c1nc(N2CCCCC2)c2nc(N(CCO)CCO)nc(N3CCCCC3)c2n1 [dipyridamole] | 7.1 fold | Fold (BLI enhancement), known compounds (human, 40 min, 17 μM): 7.1 fold; fold (BLI enhancement), additional previously known ABCG2 inhibitors (human, 40 min, 17 μM): 7.1 fold
O=c1c(-c2ccc(O)cc2)coc2cc(O)cc(O)c12 [genistein] | – | BLI signal enhancement (human, 40 min, 17 μM): 1.2 fold; fold (BLI enhancement), additional previously known ABCG2 inhibitors (human, 40 min, 17 μM): 1.2 fold
CC(C)(O/N=C(\C(=O)N[C@@H]1C(=O)N2C(C(=O)[O-])=C(C[n+]3ccccc3)CS[C@H]12)c1csc(N)n1)C(=O)O [ceftazidime] | 2.5 fold | –
COc1ccc2c(c1OC)C(=O)O[C@@H]2[C@H]1c2c(cc3c(c2OC)OCO3)CCN1C [noscapine hydrochloride] | 2.3 fold | –
CC[C@@H](C(=O)[C@@H](C)[C@@H](O)[C@H](C)CCc1ccc(C)c(O)c1C(=O)O)[C@H]1O[C@](CC)([C@H]2CC[C@](O)(CC)[C@H](C)O2)C[C@@H]1C [lasalocid sodium] | – | Fold (BLI enhancement, S/B ratio over control) (human): 2.7 fold
C=CC1=C(C(=O)O)N2C(=O)[C@@H](NC(=O)/C(=N\OCC(=O)O)c3csc(N)n3)[C@H]2SC1 [citropen] | 4.3 fold | –
CCCCC(CC)CNC(=N)NC(=N)NCCCCCCNC(=N)NC(=N)NCC(CC)CCCC (stereo not shown) [alexidine hydrochloride] | 3.1 fold | –
NCCS [mercaptamine hydrochloride] | 2.2 fold | –
CCOC(=O)C1=C(C)NC(C)=C(C(=O)OC)C1c1cccc(Cl)c1Cl (stereo not shown) [felodipine] | 3.0 fold | –
CNc1ccc2oc(C[C@H]3O[C@@]4(CC[C@H]3C)O[C@H]([C@H](C)C(=O)c3ccc[nH]3)[C@H](C)C[C@H]4C)nc2c1C(=O)O [calcimycin] | – | BLI signal enhancement at lower concentrations: enhance BLI signal minimally
Cc1c2ccncc2c(C)c2c1[nH]c1ccccc12 [ellipticine] | – | Fold (BLI enhancement, S/B ratio over control) [1]: 2.5 fold
Fc1ccc(C(c2ccc(F)cc2)N2CCN(C/C=C/c3ccccc3)CC2)cc1 [flunarizine hydrochloride] | 2.9 fold | –
CN1C[C@H](C(=O)N[C@]2(C)O[C@@]3(O)[C@@H]4CCCN4C(=O)[C@H](Cc4ccccc4)N3C2=O)C[C@@H]2c3cccc4[nH]cc(c34)C[C@H]21 [dihydroergotamine mesylate] | – | Fold (BLI enhancement), previously unknown compounds (human): 9.6 fold; Fold (BLI enhancement, S/B ratio over control) (human): 9.6 fold
CC(C)C[C@H]1C(=O)N2CCC[C@H]2[C@]2(O)O[C@](NC(=O)[C@@H]3C=C4c5cccc6[nH]c(Br)c(c56)C[C@H]4N(C)C3)(C(C)C)C(=O)N12 [bromocriptine mesylate] | – | Fold (BLI enhancement, S/B ratio over control) (human): 2.1 fold
COc1ccc(CN2CCN(C(c3ccc(F)cc3)c3ccc(F)cc3)CC2)c(OC)c1OC [lomerizine hydrochloride] | 4.0 fold | –
antimycin | – | Fold (BLI enhancement, S/B ratio over control) [1]: 2.3 fold
COc1ccccc1OCCNCC(O)COc1cccc2[nH]c3ccccc3c12 (stereo not shown) [carvedilol] | 10.0 fold | –
C=C(C)[C@]12C[C@@H](C)[C@@]34O[C@](Cc5ccccc5)(O[C@@H]1[C@@H]3C=C(COC(=O)Cc1ccc(O)c(OC)c1)C[C@]1(O)C(=O)C(C)=C[C@@H]41)O2 [resiniferatoxin] | – | Fold (BLI enhancement, S/B ratio over control) [1]: 4.2 fold
COc1ccc2c3c([nH]c2c1)C(C)=NCC3 [harmaline] | – | Fold (BLI enhancement, S/B ratio over control) [1]: 8.8 fold; Fold (BLI enhancement), previously unknown compounds (Table 4, approximately 17 μM, 40 min time point): 8.8 fold
